Experimental data taken from US6391338B1, “System for rendering substantially non-dissoluble bio-affecting agents bio-available” (Biovail Technologies Ltd., priority 1995, dated 2002).

Assay: Ibuprofen concentration in 0.1 N HCl by HPLC UV
Format: physicochemical
Details: 1 g solid dispersion (=200 mg ibuprofen) or raw drug in 900 mL 0.1 N HCl, stirred at 100 rpm for 0.5 h
Method: (§1) Samples were taken and ibuprofen concentration was measured by HPLC UV.
as §1

ibuprofen concentration: 0.030 µg/mL
Compound: CC(C)Cc1ccc(C(C)C(=O)O)cc1 (stereo not shown) [ibuprofen]
